The structures appear in SMILES notation. Where a name gives a salt, the structure may show the parent alone. Read-outs that look alike come from different tables or passages of the source. Bounds are passed on as bounds.

What is called MIC is the lowest concentration found to suppress growth.

For one series, the system named is S. aureus 17740. Nature of the series: Treatment Effect on the Systemic Infection. The following applies: 240 h. The class given is in vivo, NMRI mice. As to the method: (§1) 10 fold of the pathogens which lead to 100% lethality were injected intraperitoneally to male and female NMRI mice weighing 18 to 20 g. Immediately and 4 hours after injection, the dose of test compounds, which was determined by two-fold serial dilution method, was administered orally or subcutaneously to the mice, and on the 10th day, the effect was evaluated in terms of ED50 calculated from the number of survived mice by the probit analysis.

In the next series the test system is P. mirabilis. As to the kind of experiment: Treatment Effect on the Systemic Infection. Type of series: in vivo, NMRI mice. The conditions noted are these: Proteus mirabilis, in Mus musculus, 240 h. As for the experimental part:
as §1

A further series can be described thus: Acute Toxicity Test. The following applies: mouse, in vivo, ICR mice, 14th day. As to the method: Test compounds were administered to ICR mice weighing 20 to 25 g. On 14th day, LD50 was calculated from the number of survived mice by the probit analysis.
A further series deals with Klebsiella oxytoca 1082E. Nature of the series: In Vitro Anti-Bacterial Activity Test (MIC, agar dilution). Type of series: cell-based. The conditions noted are these: Klebsiella oxytoca 1082E; Muller-Hinton agar, 37° C., 18 hours; read-out: MIC. In outline: (§2)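 Via the agar dilution method, compound-supplemented Muller-Hinton plates received 10^7 C.F.U./ml inocula. Incubation ran 18 hours at 37° C., and MIC corresponded to the lowest concentration without growth.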
For orientation: Agar dilution tests growth on a series of plates holding different concentrations.

The test system of series [1] is Streptococcus pyogenes 77A. The description is as above. Type of series: cell-based. The gist of the method:
as §2

Series [2] deals with Pseudomonas aeruginosa 9027. Described as above. Type of series: cell-based. The following applies: Muller-Hinton agar, 37° C., 18 hours, read-out: MIC. The gist of the method: as §2
For series [3], the system named is Streptococcus pyogenes 308A. The series is described as above. The class given is cell-based. The conditions noted are these: Muller-Hinton agar, 37° C., 18 hours, read-out: MIC. The gist of the method: as §2
A further series deals with Escherichia coli DC0. Described as above. The conditions noted are these: Muller-Hinton agar, 37° C., 18 hours, read-out: MIC. Type of series: cell-based. In outline: as §2
The test system of series [4] is Staphylococcus aureus 503. The series is described as above. The following applies: Staphylococcus aureus 503; Muller-Hinton agar, 37° C., 18 hours; read-out: MIC. Type of series: cell-based. In outline: as §2
Series [5] relates to Enterobacter cloacae 1321E. The series is described as above. The class given is cell-based. In outline:
as §2

The subject of a further series is Escherichia coli 1507E. The series is described as above. The following applies: Escherichia coli, 1507E, 18 h, Muller-Hinton agar, 37° C. The class given is cell-based. The gist of the method: as §2
The test system of series [6] is Klebsiella aerogenes 1522E. The series is described as above. The conditions noted are these: Klebsiella aerogenes, 1522E, 18 h, Klebsiella aerogenes 1522E; Muller-Hinton agar, 37° C., 18 hours; read-out: MIC. Type of series: cell-based. The gist of the method: as §2
Another series concerns Escherichia coli DC2. The series is described as above. The class given is cell-based. The conditions noted are these: Escherichia coli, DC2, 18 h. In outline: as §2
In the next series the test system is Escherichia coli TEM. The series is described as above. The following applies: Escherichia coli, 18 h, Muller-Hinton agar, 37° C. Type of series: cell-based. The gist of the method: (§3)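 MIC was determined by agar dilution on Mueller-Hinton agar. Each strain was inoculated at 10^7 C.F.U./ml, and growth was observed after 18 hours at 37° C, with ciprofloxacin as control agent.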

A further series concerns Escherichia coli 078. The series is described as above. The class given is cell-based. In outline: as §2
Series [7] relates to Pseudomonas aeruginosa 1771M. The series is described as above. The following applies: Pseudomonas aeruginosa, 1771M, 18 h, Muller-Hinton agar, 37° C. Type of series: cell-based. In outline: as §2
The next series concerns Salmonella typhimurium. The description is as above. Type of series: cell-based. The conditions noted are these: Salmonella enterica; Salmonella typhimurium; Muller-Hinton agar, 37° C., 18 hours; read-out: MIC. In outline:
as §2

The subject of series [8] is Streptococcus faecium MD8b. The series is described as above. Type of series: cell-based. The following applies: Enterococcus faecium, Muller-Hinton agar, 37° C., 18 hours, read-out: MIC. In outline:
as §2

The subject of series [9] is Pseudomonas aeruginosa 1771. Described as above. Type of series: cell-based. The conditions noted are these: Pseudomonas aeruginosa 1771; Muller-Hinton agar, 37° C., 18 hours; read-out: MIC. The gist of the method: as §2
In series [10] the test system is Pseudomonas aeruginosa 1592E. The description is as above. The class given is cell-based. The conditions noted are these: Muller-Hinton agar, 37° C., 18 hours, read-out: MIC. In outline:
as §2

For series [11], the system named is Staphylococcus aureus SG511. The description is as above. The class given is cell-based. The following applies: Staphylococcus aureus SG511; Muller-Hinton agar, 37° C., 18 hours; read-out: MIC. In outline: as §2
The next series deals with Enterobacter cloacae P99. The description is as above. The conditions noted are these: Enterobacter cloacae, P99, 18 h. Type of series: cell-based. The gist of the method: as §3
The test system of series [12] is Staphylococcus aureus 285. Described as above. The conditions noted are these: Staphylococcus aureus, 285, 18 h, Staphylococcus aureus 285; Muller-Hinton agar, 37° C., 18 hours; read-out: MIC. Type of series: cell-based. In outline: as §2
Setting [13] is: ip, read-out: Acute Toxicity LD50, Peritomeo Injection.
[14] abbreviates: oral, read-out: Acute Toxicity LD50, Oral Administration.
Where [15] appears, read: Streptococcus pyogenes 77A, Muller-Hinton agar, 37° C., 18 hours, read-out: MIC.
Setting [16] is: Escherichia coli 078, Muller-Hinton agar, 37° C., 18 hours, read-out: MIC.
[17] abbreviates: Staphylococcus aureus, in Mus musculus, S. aureus 17740, oral, immediately and 4 hours after infection, survival on 10th day, read-out: ED50 Oral Administration.
The mark [18] stands for this setting: Staphylococcus aureus, in Mus musculus, sc, S. aureus 17740, subcutaneous, immediately and 4 hours after infection, survival on 10th day, read-out: ED50 Subcutaneous Injection.
The mark [19] stands for this setting: Enterobacter cloacae 1321E, Muller-Hinton agar, 37° C., 18 hours, read-out: MIC.
The mark [20] stands for this setting: P. mirabilis, oral, immediately and 4 hours after infection, survival on 10th day, read-out: ED50 Oral Administration.
Where [21] appears, read: sc, P. mirabilis, subcutaneous, immediately and 4 hours after infection, survival on 10th day, read-out: ED50 Subcutaneous Injection.

As to `O=C(O)c1cn(C2CC2)c2cc(N3CCNCC3)c(F)cc2c1=O` [Ciprofloxacin, reference compound], the ED50 was more than 200 mg/kg in the series on S. aureus 17740 (Staphylococcus aureus, 17740, in Mus musculus, po, read-out: ED50 Oral Administration); 0.82 mg/kg with P. mirabilis (po, read-out: ED50 Oral Administration); 0.16 mg/kg in the series with P. mirabilis (sc, read-out: ED50 Subcutaneous Injection).

For `CNCC1=CCN(c2c(F)cc3c(=O)c(C(=O)C[N+](=O)[O-])cn(C4CC4)c3c2Cl)C1` [Example 16, 1-cyclopropyl-6-fluoro-8-chloro-7-(3-methylaminomethyl-2,5-dihydropyrrol-1-yl)-3-(2-nitroacetyl)-1,4-dihydro-4-oxoquinoline hydrochloride], the LD50 at 336 h in “Acute Toxicity Test” (setting [13]) turned out to be 605 mg/kg; in “Acute Toxicity Test” (setting [14]) it was 3800 mg/kg. Besides, the MIC with Klebsiella oxytoca 1082E is 7 ng/mL; in series [1] (setting [15]), 0.025 µg/mL; in series [2] it was 0.781 µg/mL; in series [3], 0.098 µg/mL; in the series with Escherichia coli DC0 it was 0.098 µg/mL; in series [4], less than 0.002 µg/mL. Further, the minimal inhibitory concentration (MIC) in series [5] (Enterobacter cloacae, 1321E, 18 h) worked out at 0.007 µg/mL; in the series on Escherichia coli 1507E, 0.013 µg/mL; in series [6], 0.013 µg/mL; in the series on Escherichia coli DC2 it was 0.013 µg/mL; against Escherichia coli TEM, 4 ng/mL; in the series with Escherichia coli 078 (setting [16]), 4 ng/mL. Besides, the MIC is 0.195 µg/mL in [7]; less than 0.02 µg/mL with Salmonella typhimurium; 0.013 µg/mL in [8]; 0.391 µg/mL in series [9]; 0.781 µg/mL in series [10]; 0.004 µg/mL in [11]. Also, the MIC against Enterobacter cloacae P99 stood at 7 ng/mL; in series [12], 0.004 µg/mL. Further, the figures for the ED50 with S. aureus 17740 (setting [17]) and in the series with S. aureus 17740 (setting [18]) were 49.7 mg/kg and 97.6 mg/kg, respectively.

Consider `O=C(C[N+](=O)[O-])c1cn(C2CC2)c2c(Cl)c(N3CC4=C(CNC4)C3)c(F)cc2c1=O` [Example 34, 1-cyclopropyl-6-fluoro-8-chloro-7-(3,7-diazabicyclo[3.3.0]oct-1,5-en-3-yl)-3-(2-nitroacetyl)-1,4-dihydro-4-oxoquinoline hydrochloride], for which the LD50 at 336 h in “Acute Toxicity Test” (setting [13]) came out at 620 mg/kg; in “Acute Toxicity Test” (setting [14]), 4000 mg/kg. Moreover, the minimum inhibitory concentration (MIC) with Klebsiella oxytoca 1082E was less than 2 ng/mL; in series [1] (setting [15]) it was 0.098 µg/mL; in series [2], 0.391 µg/mL; in series [3], 0.391 µg/mL; with Escherichia coli DC0 it was 0.195 µg/mL; in series [4] it was 0.098 µg/mL. Moreover, the MIC is 0.049 µg/mL in series [5] (setting [19]); 0.007 µg/mL in the series with Escherichia coli 1507E; 0.013 µg/mL in series [6]; 0.098 µg/mL against Escherichia coli DC2; 7 ng/mL in the series on Escherichia coli TEM; less than 2 ng/mL in the series on Escherichia coli 078 (setting [16]). The minimal inhibitory concentration (MIC) amounted to 0.098 µg/mL in series [7]; 0.004 µg/mL with Salmonella typhimurium; 0.098 µg/mL in series [8]; 0.195 µg/mL in series [9]; 0.391 µg/mL in [10]; 0.025 µg/mL in series [11]. The MIC in the series on Enterobacter cloacae P99 amounted to 7 ng/mL; in series [12] it was 0.049 µg/mL. Also, the ED50 with P. mirabilis (setting [20]) stood at 0.41 mg/kg; with P. mirabilis (setting [21]), 0.16 mg/kg.

On to `CNC1CCN(c2c(F)cc3c(=O)c(C(=O)C[N+](=O)[O-])cn(C4CC4)c3c2OC)C1` (stereo not drawn) [Example 66, 1-cyclopropyl-6-fluoro-8-methoxy-7-(3-methylaminopyrrolidin-1-yl)-3-(2-nitroacetyl)-1,4-dihydro-4-oxoquinoline hydrochloride], for which the MIC with Klebsiella oxytoca 1082E is 98 ng/mL; in series [1] (Streptococcus pyogenes, 77A, 18 h), 0.781 µg/mL; in [2], 1.56 µg/mL; in series [3], 1.56 µg/mL; in the series on Escherichia coli DC0, 0.781 µg/mL; in series [4] it was 0.098 µg/mL. Moreover, the MIC came to 0.049 µg/mL in series [5] (setting [19]); 0.391 µg/mL with Escherichia coli 1507E; 0.013 µg/mL in series [6]; 0.195 µg/mL against Escherichia coli DC2; 195 ng/mL against Escherichia coli TEM; 98 ng/mL in the series with Escherichia coli 078 (Escherichia coli, 078, 18 h). Moreover, the MIC in series [7] was 1.56 µg/mL; in the series with Salmonella typhimurium it was 0.781 µg/mL; in [8] it was 0.781 µg/mL; in series [9] it was 1.56 µg/mL; in [10] it was 1.56 µg/mL; in series [11], 0.391 µg/mL. The MIC against Enterobacter cloacae P99 was 195 ng/mL; in series [12], 0.391 µg/mL.

In the case of `CC1COc2c(N3CCN(C)CC3)c(F)cc3c(=O)c(C(=O)O)cn1c23` (stereo not drawn) [Ofloxacin, reference compound], the ED50 with S. aureus 17740 (setting [17]) was more than 200 mg/kg; in the series on S. aureus 17740 (setting [18]), 200 mg/kg; in the series with P. mirabilis (setting [20]), 1.64 mg/kg; with P. mirabilis (setting [21]), 0.33 mg/kg.

(Values after patent US5409933A, “Quinoline derivatives and processes for preparing the same” (priority 1993, dated 1995).)
